Legend:
subjects with RRMS = test: ALLEGRO sub-study: evolution of GdE and new T2 lesions into permanent black holes (PBH), frequent MRI group; assay type: in vivo, human; conditions: for Number of PBH from GdE lesions, adjusted mean (SE) / PBH from GdE lesions, RR (risk ratio) laquinimod vs placebo / Number of PBH from active lesions, adjusted mean (SE) / Number of PBH from new T2 lesions, mean (SE) / PBH from active lesions, RR (risk ratio) laquinimod vs placebo / PBH from new T2 lesions, RR (risk ratio) laquinimod vs placebo: 0.6 mg
Text: A subset of patients in ALLEGRO comprised a “frequent MRI” group for PBH analysis; these patients had MRIs taken at months 3, 6, 12 and 24. Patients in the frequent MRI group with active lesions at baseline or during the study were included in the PBH analysis. A negative binomial regression analysis was used to estimate the mean number of PBH at months 12 and 24 that evolved from GdE and new T2 lesions detected at various time points in the study in the “frequent MRI” subgroup.

RRMS patients = conditions: cited from earlier work
[1] = PBH at Month 12 from lesions at Baseline
[2] = PBH at Month 12 from lesions at Month 3
[3] = PBH at Month 12 from lesions at Months 3 and 6
[4] = PBH at Month 24 from All lesions
[5] = PBH at Month 24 from lesions at Baseline
[6] = PBH at Month 24 from lesions at Month 3
[7] = PBH at Month 24 from lesions at Months 3, 6, and 12

CCN(C(=O)c1c(O)c2c(Cl)cccc2n(C)c1=O)c1ccccc1 [Laquinimod]
Number of PBH from GdE lesions, adjusted mean (SE) (subjects with RRMS; [1]): 0.5 (0.16) [26] | PBH from GdE lesions, RR (risk ratio) laquinimod vs placebo (subjects with RRMS; [1]): 0.53 | Number of PBH from GdE lesions, adjusted mean (SE) (subjects with RRMS; [2]): 0.6 (0.25) [14] | Number of PBH from active lesions, adjusted mean (SE) (subjects with RRMS; [2]): 0.41 (0.14) [29] | Number of PBH from new T2 lesions, mean (SE) (subjects with RRMS; [2]): 0.40 (0.15) [28] | PBH from GdE lesions, RR (risk ratio) laquinimod vs placebo (subjects with RRMS; [2]): 0.58 | PBH from active lesions, RR (risk ratio) laquinimod vs placebo (subjects with RRMS; [2]): 0.44 | PBH from new T2 lesions, RR (risk ratio) laquinimod vs placebo (subjects with RRMS; [2]): 0.52 | Number of PBH from GdE lesions, adjusted mean (SE) (subjects with RRMS; [3]): 0.6 (0.18) [25] | Number of PBH from active lesions, adjusted mean (SE) (subjects with RRMS; [3]): 0.59 (0.15) [41] | Number of PBH from new T2 lesions, mean (SE) (subjects with RRMS; [3]): 0.57 (0.16) [40] | PBH from GdE lesions, RR (risk ratio) laquinimod vs placebo (subjects with RRMS; [3]): 0.45 | PBH from active lesions, RR (risk ratio) laquinimod vs placebo (subjects with RRMS; [3]): 0.42 | PBH from new T2 lesions, RR (risk ratio) laquinimod vs placebo (subjects with RRMS; [3]): 0.48 | Number of PBH from GdE lesions, adjusted mean (SE) (subjects with RRMS; [4]): 1.0 (0.20) [41] | Number of PBH from active lesions, adjusted mean (SE) (subjects with RRMS; [4]): 1.20 (0.19) [55] | Number of PBH from new T2 lesions, mean (SE) (subjects with RRMS; [4]): 0.87 (0.17) [51] | PBH from GdE lesions, RR (risk ratio) laquinimod vs placebo (subjects with RRMS; [4]): 0.45 | PBH from active lesions, RR (risk ratio) laquinimod vs placebo (subjects with RRMS; [4]): 0.51 | PBH from new T2 lesions, RR (risk ratio) laquinimod vs placebo (subjects with RRMS; [4]): 0.52 | Number of PBH from GdE lesions, adjusted mean (SE) (subjects with RRMS; [5]): 0.6 (0.17) [26] | PBH from GdE lesions, RR (risk ratio) laquinimod vs placebo (subjects with RRMS; [5]): 0.65 | Number of PBH from GdE lesions, adjusted mean (SE) (subjects with RRMS; [6]): 0.6 (0.24) [14] | Number of PBH from active lesions, adjusted mean (SE) (subjects with RRMS; [6]): 0.47 (0.14) [29] | Number of PBH from new T2 lesions, mean (SE) (subjects with RRMS; [6]): 0.43 (0.14) [28] | PBH from GdE lesions, RR (risk ratio) laquinimod vs placebo (subjects with RRMS; [6]): 0.55 | PBH from active lesions, RR (risk ratio) laquinimod vs placebo (subjects with RRMS; [6]): 0.45 | PBH from new T2 lesions, RR (risk ratio) laquinimod vs placebo (subjects with RRMS; [6]): 0.50 | Number of PBH from GdE lesions, adjusted mean (SE) (subjects with RRMS; [7]): 0.7 (0.19) [32] | Number of PBH from active lesions, adjusted mean (SE) (subjects with RRMS; [7]): 0.95 (0.18) [52] | Number of PBH from new T2 lesions, mean (SE) (subjects with RRMS; [7]): 0.87 (0.17) [51] | PBH from GdE lesions, RR (risk ratio) laquinimod vs placebo (subjects with RRMS; [7]): 0.44 | PBH from active lesions, RR (risk ratio) laquinimod vs placebo (subjects with RRMS; [7]): 0.50 | PBH from new T2 lesions, RR (risk ratio) laquinimod vs placebo (subjects with RRMS; [7]): 0.52 | Number of PBH evolved from GdE lesions present at baseline, placebo vs laquinimod (subjects with RRMS; at 12 and 24 months): no difference | Disability and brain atrophy progression (RRMS patients; 0.6 mg/day, RRMS patients): slowed disability and brain atrophy progression | Rate of whole brain atrophy compared with placebo (RRMS patients; ALLEGRO and BRAVO): decreased the rate of whole brain atrophy | Safety and tolerability profile (RRMS patients; two phase III trials): favorable safety and tolerability profile

From patent US20160296511A1, “LAQUINIMOD FOR REDUCING THALAMIC DAMAGE IN MULTIPLE SCLEROSIS” (Teva Pharmaceutical Industries, Ltd., priority 2012, published 2016)
